A word on the TGI: it is the concentration at which net growth stops. A lower TGI goes with more potent growth arrest. As a reminder, the GI50 is the concentration giving 50% growth inhibition.

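Results reflect a 48-hour exposure of cells in 96-well plates to compound at five concentrations. Abbreviation: GI50, concentration required for 50% inhibition of growth. TGI marks complete inhibition of growth.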

Test systems include LOX IMVI melanoma; MALME-3M melanoma; SNB-78 CNS; IGROV1 ovarian; NCI-H23 lung; DMS 273 small cell lung; SF-268 CNS; OVCAR-8 ovarian; EKVX NSCLC; M19-MEL melanoma; DMS 114 small cell lung; HOP-18 NSCLC.
Common to all, as to experiment: DTP human tumour cell line panel, 48 h

As to `CCOc1ccc(N=C2NC(=O)C(CC(=O)Nc3ccc(Cl)cc3Cl)S2)cc1` (stereo not drawn), the TGI in the assay with LOX IMVI melanoma, in the assay with MALME-3M melanoma, in the assay with SNB-78 CNS, in the assay on IGROV1 ovarian, in the assay on NCI-H23 lung and in the assay with DMS 273 small cell lung was greater than 100 µM each time. The TGI in the assay on SF-268 CNS, in the assay on OVCAR-8 ovarian, in the assay with EKVX NSCLC, in the assay on M19-MEL melanoma and in the assay with DMS 114 small cell lung was greater than 100 µM each time.

`S=C1NC(c2ccccc2)=NC(Cc2ccccc2)(c2ccccc2)N1c1ccccc1` (stereo not drawn): the TGI in the assay with LOX IMVI melanoma, in the assay with MALME-3M melanoma, in the assay with HOP-18 NSCLC, in the assay with SNB-78 CNS, in the assay with IGROV1 ovarian and with NCI-H23 lung was greater than 100 µM throughout. The TGI in the assay on SF-268 CNS, in the assay with OVCAR-8 ovarian, in the assay on EKVX NSCLC, in the assay with M19-MEL melanoma and in the assay on DMS 114 small cell lung was greater than 100 µM in each case.

Take `CN(CC(=O)O)S(=O)(=O)c1ccc(Cl)cc1`: the concentration for total growth inhibition (TGI) with LOX IMVI melanoma, in the assay with MALME-3M melanoma, with HOP-18 NSCLC, with IGROV1 ovarian, with NCI-H23 lung and in the assay on DMS 273 small cell lung was greater than 100 µM throughout. Further, the TGI with SF-268 CNS, in the assay on OVCAR-8 ovarian, with EKVX NSCLC and in the assay with M19-MEL melanoma was greater than 100 µM in each case.

For `S=c1sc2sc(=S)sc2s1`, the concentration for total growth inhibition (TGI) in the assay with LOX IMVI melanoma, in the assay on MALME-3M melanoma, in the assay on HOP-18 NSCLC, in the assay with SNB-78 CNS, in the assay with IGROV1 ovarian and in the assay on DMS 273 small cell lung was greater than 100 µM each time. The TGI in the assay with SF-268 CNS is greater than 100 µM; with OVCAR-8 ovarian it was greater than 100 µM; in the assay on M19-MEL melanoma, 75.6 µM.

`COC(=O)CCC(=O)C(CC(=O)OC)C(=O)CCC(=O)NCCc1ccccc1` (stereo not drawn): the TGI with LOX IMVI melanoma, in the assay with MALME-3M melanoma, in the assay on HOP-18 NSCLC, with SNB-78 CNS, with IGROV1 ovarian and in the assay on NCI-H23 lung was greater than 100 µM throughout. Also, the TGI with DMS 273 small cell lung, with SF-268 CNS, in the assay on OVCAR-8 ovarian and in the assay on EKVX NSCLC was greater than 100 µM in each case.

On to `CN1C[C@@H]2CC(=O)CC[C@@H]2C[C@H]1C#N`, for which the TGI in the assay on LOX IMVI melanoma, in the assay on MALME-3M melanoma, in the assay with IGROV1 ovarian, in the assay on SF-268 CNS, in the assay with OVCAR-8 ovarian and in the assay on DMS 114 small cell lung was greater than 100 µM in each case.

Regarding `Cc1ccccc1C(C#N)/C(=N/NC(N)=S)C(=O)Nc1c(C)cccc1C` (stereo not drawn), the TGI in the assay with LOX IMVI melanoma, in the assay with MALME-3M melanoma, in the assay with HOP-18 NSCLC, in the assay with SNB-78 CNS, in the assay on IGROV1 ovarian and in the assay with NCI-H23 lung was greater than 100 µM in each case. In addition, the TGI with SF-268 CNS, with OVCAR-8 ovarian, in the assay on EKVX NSCLC, in the assay with M19-MEL melanoma and in the assay on DMS 114 small cell lung was greater than 100 µM each time.

Regarding `O=C1C2=C(c3ccccc31)C(c1ccccc1Cl)NC(=S)N2` (stereo not drawn), the TGI in the assay with MALME-3M melanoma, in the assay on IGROV1 ovarian, in the assay on NCI-H23 lung, with DMS 273 small cell lung, with SF-268 CNS and in the assay on OVCAR-8 ovarian was greater than 100 µM each time. For the same molecule, the TGI with EKVX NSCLC and with M19-MEL melanoma was greater than 100 µM throughout.

`CN1C(=O)CNS1(=O)=O`: the TGI in the assay on LOX IMVI melanoma, with MALME-3M melanoma, in the assay on SNB-78 CNS, in the assay with IGROV1 ovarian, in the assay on NCI-H23 lung and in the assay on DMS 273 small cell lung was greater than 100 µM in each case. In addition, the TGI with SF-268 CNS, with OVCAR-8 ovarian and with DMS 114 small cell lung was greater than 100 µM in each case.

Consider `Cc1ccc(NC(=O)CC2SC(=Nc3cccc(Cl)c3C)NC2=O)cc1` (stereo not drawn), for which the concentration for total growth inhibition (TGI) in the assay on LOX IMVI melanoma is greater than 100 µM; in the assay with MALME-3M melanoma, greater than 100 µM; in the assay with SNB-78 CNS, greater than 100 µM; with IGROV1 ovarian, greater than 100 µM; in the assay on NCI-H23 lung it was 95.3 µM; with DMS 273 small cell lung it was greater than 100 µM. Besides, the TGI was greater than 100 µM in the assay on SF-268 CNS; greater than 100 µM with OVCAR-8 ovarian; greater than 100 µM with EKVX NSCLC; greater than 100 µM in the assay on M19-MEL melanoma; 96.6 µM with DMS 114 small cell lung.

For the molecule `Cc1cc(S(=O)(=O)Nc2n[nH]c(-c3ccc(Cl)cc3)c2C#N)c(S)cc1Cl`, the GI50 in the assay with LOX IMVI melanoma, in the assay on MALME-3M melanoma, with IGROV1 ovarian, with NCI-H23 lung, in the assay with SF-268 CNS and with OVCAR-8 ovarian was greater than 100 µM throughout. Further, in the assay on EKVX NSCLC, the GI50 was greater than 100 µM. Besides, the TGI in the assay with LOX IMVI melanoma, in the assay on MALME-3M melanoma, in the assay with IGROV1 ovarian, in the assay on NCI-H23 lung, in the assay on SF-268 CNS and with OVCAR-8 ovarian was greater than 100 µM each time. Also, the TGI in the assay with EKVX NSCLC was greater than 100 µM.

Consider `CCN1C2=C(SC(=S)C1=C1SC(C(=O)c3ccccc3)=C(C(=O)c3ccccc3)S1)SC(=Nc1ccccc1)C2=O`, for which the GI50 in the assay with LOX IMVI melanoma is 1.43 µM; in the assay on MALME-3M melanoma, 21.2 µM; in the assay on IGROV1 ovarian, 23 µM; with NCI-H23 lung, 5.43 µM; in the assay with SF-268 CNS, 8.24 µM; with OVCAR-8 ovarian, 2.34 µM. For the same molecule, the GI50 in the assay on EKVX NSCLC is 80.4 µM. The TGI in the assay with LOX IMVI melanoma is 7.06 µM; with MALME-3M melanoma it was greater than 100 µM; with IGROV1 ovarian, greater than 100 µM; in the assay with NCI-H23 lung it was greater than 100 µM; in the assay on SF-268 CNS it was greater than 100 µM; with OVCAR-8 ovarian, greater than 67.5 µM. In addition, the TGI with EKVX NSCLC is greater than 100 µM.

Consider `N#C/C(=C\c1ccc([N+](=O)[O-])cc1)n1nnc2cc(F)c(F)cc21`, for which the GI50 in the assay on LOX IMVI melanoma was 1.55 µM; with MALME-3M melanoma, 2.08 µM; with IGROV1 ovarian it was 1.72 µM; with NCI-H23 lung, 1.87 µM; with SF-268 CNS it was 3.13 µM; in the assay with OVCAR-8 ovarian it was 2.14 µM. For the same molecule, the GI50 with EKVX NSCLC was 1.7 µM. Moreover, the TGI turned out to be 2.97 µM in the assay with LOX IMVI melanoma; 5.3 µM in the assay with MALME-3M melanoma; 4 µM in the assay with IGROV1 ovarian; 4.08 µM in the assay on NCI-H23 lung; 12.1 µM in the assay on SF-268 CNS; 6.17 µM in the assay on OVCAR-8 ovarian. For the same molecule, in the assay with EKVX NSCLC, the TGI is 3.56 µM.

Source of the values: PubChem BioAssay (NCI).
